Laboratory results as given in patent US11827628B2, “Compositions and methods for inhibition of the JAK pathway” (Rigel Pharmaceuticals, Inc., priority 2005, dated 2023).
Like-named read-outs stand apart in the source and are kept apart here.

How the values were obtained:
[1] = test system: IL-4 stimulated expression of CD23 in human Ramos B cells (JAK-1 and JAK-3); experiment: Assay for Ramos B-Cell Line Stimulated with IL-4 (CD23 upregulation, FACS); format: cell-based; details: Ramos B-cell line stimulated with IL-4, CD23 expression by FACS, read-out: IC50, Example 41
In short: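 Read-out is surface CD23 by FACS after anti-CD23-PE staining, giving IC50. Before this, cells were stimulated 20-24 h with 50 units/mL (final) human IL-4, following 1 h compound or vehicle pre-treatment at 37 °C; log-phase Ramos B cells, 5×10^4 per well in 5% serum RPMI.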

[2] = test system: up-regulation of ICAM-1 (CD54) by IFNγ in A549 lung epithelial cells; experiment: A549 Epithelial Line Stimulated with IFNγ (ICAM-1 surface expression, FACS); format: cell-based, human; details: ICAM-1 expression by FACS, read-out: IC50, Example 43
In short: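 A549 cells pre-incubated 1 h with compound (30 μM to 14 nM, 5% FBS, 0.3% DMSO), then stimulated with IFNγ (75 ng/mL) for 24 h. Surface ICAM-1 stained with APC anti-CD54 and read by flow cytometry; geometric mean of live-gated events plotted against concentration for EC50.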

[3] = A549 epithelial line stimulated with IFNγ

| Structure (SMILES) | IC50 [1] | IC50 [2, 3] | IC50 ([1]; sodium salt) | IC50 ([2]; A549 cells stimulated with IFNγ) |
| --- | --- | --- | --- | --- |
| Cc1cc(Nc2nc(Nc3ccc(S(N)(=O)=O)cc3)ncc2F)ccc1OC(C)C#N (racemic) [Compound I-60, Racemic N2-(4-Aminosulfonyl)phenyl-N4-[4-(1-cyano)ethoxy-3-methyl]phenyl-5-fluoro-2,4-pyrimidinediamine] | 103 nM | 7890 nM |  |  |
| Cc1cc(Nc2nc(Nc3ccc(C)c(S(N)(=O)=O)c3)ncc2F)ccc1OC(C)C#N (racemic) [Compound I-62, Racemic N2-(3-Aminosulfonyl-4-methyl)phenyl-N4-[4-(1-cyano)ethoxy-3-methyl]phenyl-5-fluoro-2,4-pyrimidinediamine] | 101 nM | 3530 nM |  |  |
| Cc1cc(Nc2nc(Nc3ccc(S(N)(=O)=O)cc3)ncc2F)cc(C)c1OC(C)C#N (racemic) [Compound I-63, Racemic N2-(4-Aminosulfonyl)phenyl-N4-[4-(1-cyano)ethoxy-3,5-dimethyl]phenyl-5-fluoro-2,4-pyrimidinediamine] | 169 nM | 34300 nM |  |  |
| COc1cc(Nc2ncc(F)c(Nc3ccc(OC(C)C#N)c(C)c3)n2)ccc1S(N)(=O)=O (racemic) [Compound I-64, Racemic N2-(4-Aminosulfonyl-3-methoxy)phenyl-N4-[4-(1-cyano)ethoxy-3-methyl]phenyl-5-fluoro-2,4-pyrimidinediamine] | 113 nM | 5170 nM |  |  |
| Cc1ccc(Nc2ncc(F)c(Nc3ccc(OC(C)C#N)cc3)n2)cc1S(N)(=O)=O (racemic) [Compound I-67, Racemic N2-(3-Aminosulfonyl-4-methyl)phenyl-N4-[4-(1-cyano)ethoxy]phenyl-5-fluoro-2,4-pyrimidinediamine] | 33.2 nM | 4620 nM |  |  |
| CC(C#N)Oc1ccc(Nc2nc(Nc3ccc(F)c(S(N)(=O)=O)c3)ncc2F)cc1 (racemic) [Compound I-68, Racemic N2-(3-Aminosulfonyl-4-fluoro)phenyl-N4-[4-(1-cyano)ethoxy]phenyl-5-fluoro-2,4-pyrimidinediamine] | 187 nM | 4960 nM |  |  |
| Cc1cc(Nc2nc(Nc3ccc(F)c(S(N)(=O)=O)c3)ncc2F)ccc1OC(C)C#N (racemic) [Compound I-69, Racemic N2-(3-Aminosulfonyl-4-fluoro)phenyl-N4-[4-(1-cyano)ethoxy-3-methyl]phenyl-5-fluoro-2,4-pyrimidinediamine] | 118 nM | 5640 nM |  |  |
| COc1cc(Nc2ncc(F)c(Nc3ccc(OC(C)C#N)cc3)n2)ccc1S(N)(=O)=O (racemic) [Compound I-70, Racemic N2-(4-Aminosulfonyl-3-methoxy)phenyl-N4-[4-(1-cyano)ethoxy]phenyl-5-fluoro-2,4-pyrimidinediamine] | 61.4 nM | 3430 nM |  |  |
| Cc1cc(Nc2nc(Nc3cccc(S(N)(=O)=O)c3)ncc2F)cc(C)c1OC(C)C#N (racemic) [Compound I-71, Racemic N2-(3-Aminosulfonyl)phenyl-N4-[4-(1-cyano)ethoxy-3,5-dimethyl]phenyl-5-fluoro-2,4-pyrimidinediamine] | 61.8 nM | 3270 nM |  |  |
| Cc1ccc(Nc2ncc(F)c(Nc3cc(C)c(OC(C)C#N)c(C)c3)n2)cc1S(N)(=O)=O (racemic) [Compound I-72, Racemic N2-(3-Aminosulfonyl-4-methyl)phenyl-N4-[4-(1-cyano)ethoxy-3,5-dimethyl]phenyl-5-fluoro-2,4-pyrimidinediamine] | 52.4 nM | 3310 nM |  |  |
| N#CCOc1cccc(Nc2nc(Nc3cccc(S(N)(=O)=O)c3)ncc2F)c1 [Compound I-4, N2-(3-Aminosulfonyl)phenyl-N4-(3-cyanomethoxy)phenyl-5-fluoro-2,4-pyrimidinediamine] | 49.1 nM | 4860 nM |  |  |
| Cc1cc(Nc2nc(Nc3ccc(F)c(S(N)(=O)=O)c3)ncc2F)cc(C)c1OCC#N [Compound I-35, N2-(3-Aminosulfonyl-4-fluoro)phenyl-N4-(4-cyanomethoxy-3,5-dimethyl)phenyl-5-fluoro-2,4-pyrimidinediamine] | 47 nM | 8580 nM |  |  |
| Cc1ccc(Nc2ncc(F)c(Nc3ccc(OCC#N)c(Cl)c3)n2)cc1S(N)(=O)=O [Compound I-43, N2-(3-Aminosulfonyl-4-methylphenyl)-N4-(3-chloro-4-cyanomethoxypheny)-5-fluoro-2,4-pyrimidinediamine] | 18.3 nM | 36700 nM |  |  |
| Cc1ccc(Nc2ncc(F)c(Nc3ccc(OC(C)(C)C#N)cc3)n2)cc1S(N)(=O)=O [Compound I-73, N2-(3-Aminosulfonyl-4-methyl)phenyl-N4-[4-(1-cyano-1-methyl)ethoxy]phenyl-5-fluoro-2,4-pyrimidinediamine] | 120 nM | 5560 nM |  |  |
| CC(C)(C#N)Oc1ccc(Nc2nc(Nc3ccc(F)c(S(N)(=O)=O)c3)ncc2F)cc1 [Compound I-74, N2-(3-Aminosulfonyl-4-fluoro)phenyl-N4-[4-(1-cyano-1-methyl)ethoxy]phenyl-5-fluoro-2,4-pyrimidinediamine] | 245 nM | 10800 nM |  |  |
| CC(C)(C#N)Oc1ccc(Nc2nc(Nc3cccc(S(N)(=O)=O)c3)ncc2F)cc1 [Compound I-76, N2-(3-Aminosulfonyl)phenyl-N4-[4-(1-cyano-1-methyl)ethoxy]phenyl-5-fluoro-2,4-pyrimidinediamine] | 101 nM | 5140 nM |  |  |
| Cc1ccc(Nc2ncc(F)c(Nc3ccc(NC(=O)CC#N)c(Cl)c3)n2)cc1S(N)(=O)=O [Compound I-83, N2-(3-Aminosulfonyl-4-methylphenyl)-N4-[3-chloro-4-(N-cyanoacetyl)aminophneyl]-5-fluoro-2,4-pyrimidinediamine] | 158 nM | 14900 nM |  |  |
| Cc1cc(Nc2nc(Nc3cccc(S(N)(=O)=O)c3)ncc2F)cc(C)c1OCC(N)=O [Compound I-93, N4-(4-Aminocarbonylmethoxy-3,5-dimethyl)phenyl-N2-(3-aminosulfonyl)phenyl-5-fluoro-2,4-pyrimidinediamine] | 265 nM | 23800 nM |  |  |
| CCC(=O)NS(=O)(=O)c1cccc(Nc2ncc(F)c(Nc3ccc(OCc4nc(C)no4)cc3)n2)c1 [Compound I-273] |  | 12900 nM | 478 nM |  |
| CNS(=O)(=O)c1cc(Nc2ncc(F)c(Nc3ccc(Cc4ccncc4)cc3)n2)ccc1C [III-75, 5-Fluoro-N2-[3-(N-methylaminosulfony)-4-methylphenyl]-5-fluoro-N4-[4-(4-pyridinylmethyl)phenyl]-2,4-pyrimidinediamine] | 170 nM | 10100 nM |  |  |
| NS(=O)(=O)c1cccc(Nc2ncc(F)c(Nc3ccc(Cn4ccnc4)cc3)n2)c1 [III-81, N2-(3-Aminosulfonylphenyl)-5-fluoro-N4-[4-(1-imidazolylmethyl)phenyl]-2,4-pyrimidinediamine] | 180 nM | 48300 nM |  |  |
| Cc1ccc(Nc2ncc(F)c(Nc3ccc(Cn4ccnc4)cc3)n2)cc1S(N)(=O)=O [III-82, N2-(3-Aminosulfonyl-4-methylphenyl)-5-fluoro-N4-[4-(1-imidazolylmethyl)phenyl]-2,4-pyrimidinediamine] | 127 nM | 24200 nM |  |  |
| Cc1ccc(Nc2ncc(F)c(Nc3ccc4c(c3)CCN4S(C)(=O)=O)n2)cc1S(N)(=O)=O [VII-61, N2-(3-Aminosulfonyl-4-methylphenyl)-5-fluoro-N4-[4-(1-methylsulfonyl)indolin-5-yl]-2,4-pyrimidinediamine] |  |  |  | 2690 nM |
